Laboratory results: patent publication US20120141461A1, “COMPOSITIONS AND METHODS FOR DIAGNOSING AND TREATING FIBROTIC DISORDERS” (THE REGENTS OF THE UNIVERSITY OF MICHIGAN, priority 2009, published 2012)

Key:
[1] = system: C57BL/6 mice; assay: Murine model of bleomycin-induced lung injury/fibrosis; format: in vivo, mouse
Description: RNA was extracted and expression of NOX4 mRNA analyzed by real-time PCR; (b) C57BL/6 mice were administered intra-tracheal (IT) bleomycin on day 0.
C57BL/6J mice (6-8 weeks of age; Jackson Laboratories, Bar Harbor, Me.) were anesthetized with intraperitoneal injection of ketamine and xylazine. Intra-tracheal bleomycin (0.025 U) or FITC (4.67 mg/ml suspension in PBS) was administered to induce lung injury. The University of Michigan Committee on the Use and Care of Animals approved the animal protocols.
(§1) For in vitro RNAi, cells were transfected with single duplexes targeting NOX4 or non-targeting control siRNA (100 nM) using Lipofectamine-2000 reagent. For in vivo RNAi studies, NOX4 siRNA or control nontargeting siRNA (Dharmacon Inc.) were administered at a dose of ˜50 μg per mouse by intratracheal injection with bleomycin, FITC, or saline, in a total volume of 50 μl using a 26-gauge needle.
(§2) Cell lysates were prepared in RIPA buffer, subjected them to SDS-PAGE under reducing conditions and performed western immunoblotting as previously described (Horowitz et al. J Biol Chem 279, 1359-1367 (2004), herein incorporated by reference in its entirety).
Acid-soluble collagen was measured in cell culture supernatants or whole lung homogenates using the Sircol assay as previously described (Vittal et al. Am J Pathol 166, 367-375 (2005), herein incorporated by reference in its entirety).
Murine whole lungs were homogenized in PBS, then acidified (by adding an equal volume of 12 N HCl), hydrolyzed (by heating at 120° C. for 24 h), and processed samples for hydroxyline measurements as previously described 29. Lung histology and immunohistochemical staining Paraffin embedded tissue sections were processed for lung histology and immunohistochemical staining as previously described described (Vittal et al. Am J Pathol 166, 367-375 (2005), herein incorporated by reference in its entirety).

[2] = system: human fetal lung mesenchymal cells (hFLMCs); assay: Myofibroblast differentiation markers in hFLMCs in 3D-collagen matrix, Western immunoblotting; format: cell-based; settings: catalase 750 U/ml, TGF-β1 2 ng/ml x 16 h
Description: (§3) Collagen gels were reconstituted by mixing 1 part of 3 mg/ml neutralized rat tail collagen type 1 and two parts of cell suspension in serum-free media. Cell suspensions were seeded at a density of 200,000 cells per ml into 24-well tissue culture plates and allowed the gels to polymerize at 37° C. for 1 h before adding 1 ml of media. Gels were incubated overnight prior to treatments, and gently detached the edge of the gels from the walls of the well using a sterile spatula. Gels were photographed and gel area was measured using ImageJ (NIH) software.
as §1, §2

[3] = system: human fetal lung mesenchymal cells (hFLMCs); assay: TGF-β1-induced collagen gel contractility of hFLMCs in 3D-collagen matrices; format: cell-based; settings: catalase at 750 U/ml
Description: as §3

[4] = DPI 1.6 mg/kg daily intra-peritoneal on days 8 to 21, day 21

c1ccc2c(c1)[I+]c1ccccc1-2 [DPI, diphenyleneiodonium chloride]
protection from fibrosis, acid-soluble collagen in whole lung ([1]; DPI 1.6 mg/kg daily intra-peritoneal on days 8 to 21, Sircol assay on day 21): significant protection from fibrosis
expression of NOX4 and α-SMA expressing myofibroblasts (IHC) [1, 4]: reduced expression
fibrosis by histopathology and Masson's trichrome staining for collagen [1, 4]: reduced fibrosis

B1: catalase: an enzyme which reduces H2O2 to H2O (protein, UniProt P04040 2-527, looked up)
Catalase: ADSRDPASDQMQHWKEQRAAQKADVLTTGAGNPVGDKLNVITVGPRGPLLVQDVVFTDEMAHFDRERIPERVVHAKGAGAFGYFEVTHDITKYSKAKVFEHIGKKTPIAVRFSTVAGESGSADTVRDPRGFAVKFYTEDGNWDLVGNNTPIFFIRDPILFPSFIHSQKRNPQTHLKDPDMVWDFWSLRPESLHQVSFLFSDRGIPDGHRHMNGYGSHTFKLVNANGEAVYCKFHYKTDQGIKNLSVEDAARLSQEDPDYGIRDLFNAIATGKYPSWTFYIQVMTFNQAETFPFNPFDLTKVWPHKDYPLIPVGKLVLNRNPVNYFAEVEQIAFDPSNMPPGIEASPDKMLQGRLFAYPDTHRHRLGPNYLHIPVNCPYRARVANYQRDGPMCMQDNQGGAPNYYPNSFGAPEQQPSALEHSIQYSGEVRRFNTANDDNVTQVRAFYVNVLNEEQRKRLCENIAGHLKDAQIFIQKKAVKNFTEVHPDYGSHIQALLDKYNAEKPKNAIHTFVQSGSHLAAREKANL
fibronectin synthesis induced by TGF-β1 [2]: inhibited
upregulation of α-smooth muscle actin (α-SMA) induced by TGF-β1 [2]: inhibited
TGF-β1-induced collagen gel contractility [3]: inhibited
